Tests used:
EGFR del746-750 T790M = biological target: T1, EGFR del746-750 T790M (Homo sapiens, UniProt P00533, DEL746-750/T790M); assay: EGFR del746-750 T790M biochemical assay (Caliper mobility shift); settings: 5 μM ATP, 30 min, room temperature; apparent Ki (Morrison) converted by Cheng-Prusoff, Km of ATP 2.1 μM; read-out: EGFR(T790M/d746-750) Ki
T1 construct: purchased Carna Biosciences 08-528

[1] = biological target: T2, phosphor-EGFR in H1975(L585R/T790M) mutant EGFR expressing cells (Homo sapiens, UniProt P00533, L858R/T790M); assay: H1975 pEGFR MSD cellular assay; assay type: cell-based; settings: NCI-H1975 cells, serum starved, 1 hour compound incubation, pEGFR Tyr1068 MSD
T2 construct: host or cells: NCI-H1975
Protocol: H1975 pEGFR MSD Cellular Assays Background:
These assays are intended for determining cellular. […] (Meso Scale Discovery Catalog# N31CB-1).
All cell culture reagents were purchased from Invitrogen/Gibco. Cells are cultured at 37° C. at 5% CO2 and split as recommended by ATCC.
Cell Plating and Serum Starvation:
After six hours, culture medium is aspirated and replaced with serum-free culture medium. Cells are then incubated with the serum-free medium overnight at 37° C. and 5% CO2.
The following day, test compounds are serially diluted in dimethyl sulfoxide (DMSO) and added to cells in serum free medium (final DMSO concentration 0.5%). Assay plates are then incubated for 1 hour at 37° C. and 5% CO2. Following 1 hour of compound incubation cells are then lysed and processed as per the MSD pEGFR assay kit protocol. Cell lysates are added to assay plates pre-coated with antibodies against phosphorylated EGFR. Phosphorylated EGFR in samples are allowed to bind to the capture antibodies overnight at 4° C. The detection antibody (anti-total EGFR, labeled with an electrochemiluminescent SULFO-TAG) is added to the bound lysate and incubated for 1 hour at room temperature. The MSD Read Buffer is added such that when a voltage is applied to the plate electrodes, the labels bound to the electrode surface emit light. The MSD Sector Instrument measures the intensity of the light, and quantitatively measures the amount of phosphorylated-EGFR in the sample. Percent inhibition of EGFR phosphorylation by varying concentrations of test compounds is calculated relative to untreated controls. EC50 values are calculated using the 4 parameter logistic nonlinear regression dose-response model.

T1 sequence (P00533 with tags, fused parts or gaps DEL746-750/T790M limits assumed): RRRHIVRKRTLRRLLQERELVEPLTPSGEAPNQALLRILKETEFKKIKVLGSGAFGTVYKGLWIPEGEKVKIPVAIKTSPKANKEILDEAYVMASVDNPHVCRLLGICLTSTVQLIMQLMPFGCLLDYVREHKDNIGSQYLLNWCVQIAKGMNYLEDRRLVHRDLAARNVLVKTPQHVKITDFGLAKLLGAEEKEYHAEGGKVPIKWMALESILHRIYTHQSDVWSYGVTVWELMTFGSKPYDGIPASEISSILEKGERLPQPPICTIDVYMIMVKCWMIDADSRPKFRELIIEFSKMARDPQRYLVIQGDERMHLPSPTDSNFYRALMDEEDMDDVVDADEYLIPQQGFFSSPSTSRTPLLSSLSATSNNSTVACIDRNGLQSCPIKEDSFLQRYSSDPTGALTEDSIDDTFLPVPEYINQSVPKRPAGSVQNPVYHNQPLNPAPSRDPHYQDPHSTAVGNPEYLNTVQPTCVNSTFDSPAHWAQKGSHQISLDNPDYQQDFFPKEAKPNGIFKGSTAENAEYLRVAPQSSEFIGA
T2 sequence (P00533 25-1210 T790M/L858R): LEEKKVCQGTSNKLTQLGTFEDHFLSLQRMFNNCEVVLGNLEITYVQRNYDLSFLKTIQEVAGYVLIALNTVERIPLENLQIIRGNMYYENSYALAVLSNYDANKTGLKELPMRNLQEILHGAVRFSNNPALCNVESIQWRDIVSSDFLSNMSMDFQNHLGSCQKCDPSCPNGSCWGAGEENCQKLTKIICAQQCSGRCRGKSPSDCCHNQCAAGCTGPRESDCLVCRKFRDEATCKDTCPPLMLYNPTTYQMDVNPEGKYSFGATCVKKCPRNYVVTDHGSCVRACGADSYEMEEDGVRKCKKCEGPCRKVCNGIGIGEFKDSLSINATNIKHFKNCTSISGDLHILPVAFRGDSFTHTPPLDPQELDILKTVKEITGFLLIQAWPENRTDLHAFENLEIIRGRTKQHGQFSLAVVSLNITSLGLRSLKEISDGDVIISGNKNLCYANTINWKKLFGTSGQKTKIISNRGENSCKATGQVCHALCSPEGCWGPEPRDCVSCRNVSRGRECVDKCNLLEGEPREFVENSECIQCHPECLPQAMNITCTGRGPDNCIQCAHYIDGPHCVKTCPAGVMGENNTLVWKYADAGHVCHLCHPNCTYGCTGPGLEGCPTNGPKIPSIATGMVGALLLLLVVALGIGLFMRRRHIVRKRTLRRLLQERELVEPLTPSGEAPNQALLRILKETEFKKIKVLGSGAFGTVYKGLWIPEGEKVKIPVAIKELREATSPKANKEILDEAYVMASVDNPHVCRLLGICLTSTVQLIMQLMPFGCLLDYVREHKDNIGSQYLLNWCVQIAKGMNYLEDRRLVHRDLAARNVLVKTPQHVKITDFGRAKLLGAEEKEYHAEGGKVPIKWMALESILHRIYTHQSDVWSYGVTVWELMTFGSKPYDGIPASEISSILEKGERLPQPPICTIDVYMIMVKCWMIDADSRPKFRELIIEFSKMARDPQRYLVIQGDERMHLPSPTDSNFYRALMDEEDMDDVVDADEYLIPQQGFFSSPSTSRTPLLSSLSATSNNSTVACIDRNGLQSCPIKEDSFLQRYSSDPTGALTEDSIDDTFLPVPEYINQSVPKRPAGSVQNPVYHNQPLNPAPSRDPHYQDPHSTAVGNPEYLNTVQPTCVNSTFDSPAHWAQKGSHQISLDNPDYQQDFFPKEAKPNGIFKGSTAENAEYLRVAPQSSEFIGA

Compound	Ki (EGFR del746-750 T790M) [nM]	EC50 [1] [nM]
COC1CCN(c2nccc(Nc3cc4c(cn3)c(C#N)cn4C(C)C)n2)CC1 [Example 58, 1-Isopropyl-6-((2-(4-methoxypiperidin-1-yl)pyrimidin-4-yl)amino)-1H-pyrrolo[3,2-c]pyridine-3-carbonitrile]	60.9	1410
COC1CCN(c2nccc(Nc3cc4c(cn3)nc([C@@H](C)O)n4[C@@H](C)C(F)(F)F)n2)CC1F (stereo partly drawn) [Example 543, (R)-1-[6-[2-(3-Fluoro-4-methoxypiperidin-1-yl)-pyrimidin-4-ylamino]-1-((S)-2,2,2-trifluoro-1-methyl-ethyl)-1H-imidazo[4,5-c]pyridin-2-yl]ethanol]	5.81	24.7
COC1CCN(c2nccc(Nc3cc4c(cn3)c(-c3nnc(C)o3)cn4C(C)C)n2)CC1 [Example 59, 1-Isopropyl-N-(2-(4-methoxypiperidin-1-yl)pyrimidin-4-yl)-3-(5-methyl-1,3,4-oxadiazol-2-yl)-1H-pyrrolo[3,2-c]pyridin-6-amine]	28.7	583
CCNC(=O)c1cn(C(C)C)c2cc(Nc3ccnc(N4CCC(OC)CC4)n3)ncc12 [Example 57, N-Ethyl-1-isopropyl-6-((2-(4-methoxypiperidin-1-yl)pyrimidin-4-yl)amino)-1H-pyrrolo[3,2-c]pyridine-3-carboxamide]	20.2	236
CC(C)n1c(CO)nc2cnc(Nc3ccnc(N4C[C@H]5CC[C@@H](C4)[C@H]5O)n3)cc21 [Example 433, (1R,5S,8r)-3-(4-((2-(hydroxymethyl)-1-isopropyl-1H-imidazo[4,5-c]pyridin-6-yl)amino)pyrimidin-2-yl)-3-azabicyclo[3.2.1]octan-8-ol]	17.2	2190
CCC(C)n1cc(C(=O)NC2CCOCC2)c2cnc(Nc3ccnc(N4CC[C@@H](OC)[C@@H](F)C4)n3)cc21 (single isomer, unassigned) [Example 376]	2.88	14.5
COC1CCN(c2nccc(Nc3cc4c(cn3)c(C(N)=O)cn4C(C)C)n2)CC1 [Example 115, 1-isopropyl-6-((2-(4-methoxypiperidin-1-yl)pyrimidin-4-yl)amino)-1H-pyrrolo[3,2-c]pyridine-3-carboxamide]	28.5	710
CC(C)n1cc(-c2cnn(CCO)c2)c2cnc(Nc3ccnc(-c4cnn(S(=O)(=O)C5CC5)c4)n3)cc21 [Example 393, 2-(4-(6-((2-(1-(cyclopropylsulfonyl)-1H-pyrazol-4-yl)pyrimidin-4-yl)amino)-1-isopropyl-1H-pyrrolo[3,2-c]pyridin-3-yl)-1H-pyrazol-1-yl)ethanol]	1.12	10.9

Continued, values first:

Ki (EGFR del746-750 T790M) [nM]	EC50 [1] [nM]	Compound
1.34	60.9	CCC(C)n1cc(C(=O)NC2CCOCC2)c2cnc(Nc3ccnc(-c4cnn(S(=O)(=O)C5CC5)c4)n3)cc21 (single isomer, unassigned; (-)) [Example 322, (−)-1-(sec-butyl)-6-((2-(1-(cyclopropylsulfonyl)-1H-pyrazol-4-yl)pyrimidin-4-yl)amino)-N-(tetrahydro-2H-pyran-4-yl)-1H-pyrrolo[3,2-c]pyridine-3-carboxamide]
1.47	76.9	CC(C)n1cc(C(=O)NC2CCOCC2)c2cnc(Nc3ccnc(-c4cnn(S(=O)(=O)C5CC5)c4)n3)cc21 [Example 396]
1.8	254	Cc1nc2cnc(Nc3ccnc(-c4cnn(S(=O)(=O)C5CC5)c4)n3)cc2n1C(C)C [Example 52, N-(2-(1-(Cyclopropylsulfonyl)-1H-pyrazol-4-yl)pyrimidin-4-yl)-1-isopropyl-2-methyl-1H-imidazo[4,5-c]pyridin-6-amine]
1.48	57.7	CC(C)n1c(Cl)c(C(=O)NC2CCOCC2)c2cnc(Nc3ccnc(-c4cnn(S(=O)(=O)C5CC5)c4)n3)cc21 [Example 262, 2-Chloro-6-(2-(1-(cyclopropylsulfonyl)-1H-pyrazol-4-yl)pyrimidin-4-ylamino)-1-isopropyl-N-(tetrahydro-2H-pyran-4-yl)-1H-pyrrolo[3,2-c]pyridine-3-carboxamide]

— US9890152B2 (Genentech, Inc., priority 2012, dated 2018)
